Measured values from patent US20140275090A1, “BILE ACID RECYCLING INHIBITORS FOR TREATMENT OF PRIMARY SCLEROSING CHOLANGITIS AND INFLAMMATORY BOWEL DISEASE” (Lumena Pharmaceuticals, Inc., priority 2013, published 2014).

What was measured:
serum cholesterol = assay: Serum total, HDL and non-HDL cholesterol, hamsters dosed 28 days; type: in vivo, golden Syrian hamster; settings: hamster
Description: Male golden Syrian hamsters (126-147 gm) were obtained from Charles Rivers Laboratories and were single housed in a constant temperature environment with alternating 12-hour light and dark cycles. Hamsters were fed Teklad 7001 rodent meal chow at libitum for two weeks before the experimental studies began and switched to Teklad 7001 rodent meal chow supplemented with 0.24% cholesterol on day one of the 28-day experiment. Water was continuously available to the animals. Hamsters were assigned to groups in a manner that normalized each group by pretreatment body weights. SD-5613 was dissolved in an aqueous solution of 0.2% (w/v) Tween 80 and administered Q.D. by intragastric gavage between 9 a.m. and 10 a.m. each morning using a syringe fitted with a flexible feeding tube. Blood samples were collected after 14- and 28-day treatment periods by orbital sinus and cardiac puncture, respectively. Hamsters were anesthetized but not fasted prior to blood collections. Fecal samples were collected during a 48-hour period at the end of days 14 and 28 (i.e. days 13-14 and 27-28). Hamsters were sacrificed using carbon dioxide asphyxiation to obtain the following tissue samples: liver, kidneys, colon and cecum.
Blood was collected at 14 and 28 days from non-fasted hamsters and put into serum separator tubes. The blood cells were separated from the serum by centrifugation at 2000×g for 20 minutes and the serum decanted. Total cholesterol was measured using a Cobas Mira Classic clinical chemistry analyzer (Roche Diagnostic Systems, Indianapolis, Ind.). This analyzer used the cholesterol oxidase reaction to produce hydrogen peroxide which was measured colorimetrically. The cholesterol reagent (Roche Diagnostic Systems) was reconstituted according to package insert. The reagent was calibrated using Roche Calibrator Serum. Commercial bi-level quality control material was analyzed to verify calibration and reagent performance (QC1, QC2-Bio-Rad Laboratories, Irvine, Calif.). The cholesterol content of each sample was measured at 500 nm and 37° C. in a calibrated analyzer by mixing 3 μl of sample with 150 μl cholesterol reagent and 40 μl water.
The Unimate HDL Direct Cholesterol assay (DHDL, Roche Diagnostics) was based on the […] of synthetic polymers and polyanions to the surface of lipoproteins. The combined action of polymers, polyanions and detergent solubilizes cholesterol from HDL, but transforms LDL, VLDL, and chylomicrons into detergent-resistant forms. Solubilized cholesterol was oxidized by the sequential enzymatic action of cholesterol esterase and cholesterol oxidase. The H2O2 produced in this reaction was reacted with chromogens to form a colored dye. The increase in absorbance at 550 nm was directly proportional to the HDL cholesterol concentration of the sample. The test was performed using a Cobas Mira Classic clinical chemistry analyzer (Roche Diagnostic Systems). The DHDL reagent (Roche Diagnostic Systems) was reconstituted according to the package insert. The reagent was calibrated using Roche HDL Direct Calibrator. Commercial bi-level quality control material was analyzed to verify calibration and reagent performance (Liquichek Lipids Control, Level 1 & 2, Bio-Rad Laboratories, Irvine, Calif.). A 2.4 μl aliquot of serum was analyzed in the presence of 240 μl of Reagent 1, 80 μl of Reagent 2 and 5 μl of water at 37° C. and 550 nm wavelength. Triglycerides were hydrolyzed by lipoprotein lipase to glycerol and fatty acids. Glycerol was then phosphorylated to glycerol-3-phosphate by adenosine 5-triphosphate (ATP) in a reaction catalyzed by glycerol kinase (GK). The oxidation of glycerol-3-phosphate was catalyzed by glycerolphosphate oxidase (GPO) to form dihydroxyacetone phosphate and hydrogen peroxide. The hydrogen peroxide reacted with 4-cholorophenol and 4-aminophenazone in the presence of peroxidase to form a quinoneimine complex, which was read at 490-550 nm. […]

[1] = Toxicokinetics of LUM001 free form, 13-week oral capsule toxicity study in dogs; type: in vivo, Beagle dog; settings: 13-wk dog capsule, 20 mg/kg
Procedure: Six- to seven-month old Beagle dogs of body weights of 4.9-9.5 kg (4/sex/group) orally via capsules at 0, 5, 20 or 100 mg/kg for 13 consecutive weeks. Plasma levels of LUM001 (free form) were evaluated on Days 1 and 91. LUM001 was administered by once daily oral gelatin capsules. […] therefore, 105% of a stated dose is given to provide the appropriate amount of compound for dosing. On study Day 1 and Day 91, approximately 2 mL of venous blood was collected in heparinized tubes from the cephalic vein of each animal at 1, 2, 3, 5, 8, and 24 hours post-dose. Blood collection tubes were mixed and placed on ice during the collection period after which they were centrifuged and the plasma was harvested into cryotubes within approximately 60 minutes of blood collection. Plasma samples were stored at approximately −70° C. or lower until analyzed.
The concentration of LUM001 free form in plasma were determined using an LC/MS/MS method. The assay sensitivity was 5.00 ng/mL for a 100 mL sample.

Compound: CCCCC1(CCCC)CS(=O)(=O)c2ccc(N(C)C)cc2[C@@H](c2ccc(OCc3ccc(C[N+]45CCN(CC4)CC5)cc3)cc2)[C@H]1O [LUM001]
- HDL-cholesterol (serum cholesterol; 5 mg/kg/day): 127 ± 10 mg/dL
- HDL-cholesterol, % change from vehicle group (serum cholesterol; 5 mg/kg/day): (−22) %
- Non-HDL-cholesterol (serum cholesterol; 5 mg/kg/day): 99 ± 9 mg/dL
- Non-HDL-cholesterol, % change from vehicle group (serum cholesterol; 5 mg/kg/day): (−37) %
- Serum Total Cholesterol (serum cholesterol; 5 mg/kg/day): 225 ± 16 mg/dL
- Serum Total Cholesterol, % change from vehicle group (serum cholesterol; 5 mg/kg/day): (−29) %
- HDL-cholesterol (serum cholesterol; 15 mg/kg/day): 115 ± 7 mg/dL
- HDL-cholesterol, % change from vehicle group (serum cholesterol; 15 mg/kg/day): (−29) %
- Non-HDL-cholesterol (serum cholesterol; 15 mg/kg/day): 86 ± 8 mg/dL
- Non-HDL-cholesterol, % change from vehicle group (serum cholesterol; 15 mg/kg/day): (−45) %
- Serum Total Cholesterol (serum cholesterol; 15 mg/kg/day): 201 ± 14 mg/dL
- Serum Total Cholesterol, % change from vehicle group (serum cholesterol; 15 mg/kg/day): (−37) %
- HDL-cholesterol (serum cholesterol; 50 mg/kg/day): 102 ± 4 mg/dL
- HDL-cholesterol, % change from vehicle group (serum cholesterol; 50 mg/kg/day): (−37) %
- Non-HDL-cholesterol (serum cholesterol; 50 mg/kg/day): 76 ± 4 mg/dL
- Non-HDL-cholesterol, % change from vehicle group (serum cholesterol; 50 mg/kg/day): (−52) %
- Serum Total Cholesterol (serum cholesterol; 50 mg/kg/day): 178 ± 6 mg/dL
- Serum Total Cholesterol, % change from vehicle group (serum cholesterol; 50 mg/kg/day): (−44) %
- Cmax ([1]; Day 1, Comb): 25.1 ng/mL
- Cmax ([1]; Day 91, F): 25.0 ng/mL
